Assay results as given in US7517874B2 (priority 2007, dated 2009).
pEC50: −log10 of the molar value. Like-named read-outs stand apart in the source and are kept apart here.

Columns and labels:
[1] = molecular target: human CB1 receptor (hCB1) (Homo sapiens, UniProt P21554); assay: cell-based; assay type: cell-based; settings: for +/− HCB1: agonist or inverse agonist at hCB1; for EC50: groups >100 nM-10 μM and >10 μM, cAMP, CHO-K1 hCB1, read-out: EC50 HCB1
Outline: (§1)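 Readout: LANCE TR-FRET cAMP, back-calculated from a concurrent standard curve and scaled between forskolin-only and forskolin + 1 μM CP55,940 wells. EC50 and intrinsic activity came from four-parameter fits.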

rat CB2 receptor (rCB2) = molecular target: T1, rat CB2 receptor (rCB2) (Rattus norvegicus, UniProt Q9QZN9); assay: cell-based; assay type: cell-based; settings: for +/− RCB2: agonist or inverse agonist at rCB2; for EC50: groups >100 nM-10 μM and >10 μM, cAMP, CHO-K1 rCB2, read-out: EC50 RCB2
T1 sequence (Q9QZN9 1-360): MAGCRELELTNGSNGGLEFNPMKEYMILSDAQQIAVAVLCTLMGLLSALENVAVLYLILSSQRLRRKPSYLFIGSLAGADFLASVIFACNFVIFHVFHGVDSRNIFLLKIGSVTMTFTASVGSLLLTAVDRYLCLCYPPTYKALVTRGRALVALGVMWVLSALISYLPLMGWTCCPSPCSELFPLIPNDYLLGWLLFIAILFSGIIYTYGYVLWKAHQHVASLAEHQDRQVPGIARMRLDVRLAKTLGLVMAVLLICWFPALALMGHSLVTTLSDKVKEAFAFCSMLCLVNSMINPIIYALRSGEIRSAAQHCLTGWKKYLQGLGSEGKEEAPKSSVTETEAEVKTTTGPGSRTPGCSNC
Outline: as §1

Chain of human CB1 receptor (hCB1) (P21554 whole entry): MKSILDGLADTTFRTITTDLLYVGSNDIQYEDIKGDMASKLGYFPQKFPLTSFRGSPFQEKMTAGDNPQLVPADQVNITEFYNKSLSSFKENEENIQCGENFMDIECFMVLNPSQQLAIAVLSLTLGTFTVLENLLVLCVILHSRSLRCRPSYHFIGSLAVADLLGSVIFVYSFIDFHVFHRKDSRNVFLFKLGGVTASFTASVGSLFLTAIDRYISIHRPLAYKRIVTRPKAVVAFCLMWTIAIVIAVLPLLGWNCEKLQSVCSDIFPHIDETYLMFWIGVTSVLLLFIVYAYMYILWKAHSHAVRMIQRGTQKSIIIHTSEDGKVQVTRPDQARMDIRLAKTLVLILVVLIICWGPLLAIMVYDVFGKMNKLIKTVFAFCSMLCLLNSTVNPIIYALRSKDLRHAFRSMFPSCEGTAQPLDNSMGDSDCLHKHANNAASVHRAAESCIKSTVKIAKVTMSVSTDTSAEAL

| SMILES | pEC50 [1] | +/− RCB2 (rat CB2 receptor (rCB2)) | other results |
| --- | --- | --- | --- |
| CNC(=O)[C@@H](NC(=O)c1nc(-c2cc(Cl)c(F)cc2F)n2c1CN(C)CCC2)C(C)(C)C [Compound 370, (S)-3-(5-chloro-2,4-difluorophenyl)-N-(3,3-dimethyl-1-(methylamino)-1-oxobutan-2-yl)-8-methyl-6,7,8,9-tetrahydro-5H-imidazo[1,5-a][1,4]diazepine-1-carboxamide] | < 5.00 | + |  |
| CNC(=O)[C@@H](NC(=O)c1nc(-c2cnn(C)c2)n2c1CN(C)CCC2)C(C)(C)C [Compound 447, (S)-N-(3,3-dimethyl-1-(methylamino)-1-oxobutan-2-yl)-8-methyl-3-(1-methyl-1H-pyrazol-4-yl)-6,7,8,9-tetrahydro-5H-imidazo[1,5-a][1,4]diazepine-1-carboxamide] |  | + | +/− HCB1 [1]: + |
| CNC(=O)[C@@H](NC(=O)c1nc(CCCN2CCCC2)n2c1CN(C)CCC2)C(C)(C)C [Compound 502, (S)-N-(3,3-dimethyl-1-(methylamino)-1-oxobutan-2-yl)-8-methyl-3-(3-(pyrrolidin-1-yl)propyl)-6,7,8,9-tetrahydro-5H-imidazo[1,5-a][1,4]diazepine-1-carboxamide] | < 5.00 | + |  |
| CCC(=O)N1CCn2c(-c3ccccc3)nc(C(=O)N[C@H](C(=O)NC)C(C)(C)C)c2C1 [Compound 189, (S)-N-(3,3-dimethyl-1-(methylamino)-1-oxobutan-2-yl)-3-phenyl-7-propionyl-5,6,7,8-tetrahydroimidazo[1,5-a]pyrazine-1-carboxamide] | < 5.00 | + |  |
| CNC(=O)[C@@H](NC(=O)c1nc(-c2ccccc2)n2c1CN(S(=O)(=O)c1ccc(Cl)cc1)CC2)C(C)(C)C [Compound 106, (S)-7-(4-chlorophenylsulfonyl)-N-(3,3-dimethyl-1-(methylamino)-1-oxobutan-2-yl)-3-phenyl-5,6,7,8-tetrahydroimidazo[1,5-a]pyrazine-1-carboxamide] | < 5.00 | − |  |
| CNC(=O)c1ccc(-c2nc(C(=O)N[C@H](C(=O)NC)C(C)(C)C)c3n2CCCN(C)C3)cc1 [Compound 408] | < 5.00 |  | pEC50 (rat CB2 receptor (rCB2)): < 5.00 |
| CNC(=O)[C@@H](NC(=O)c1nc(-c2ccccc2)n2c1CN(CC1CC1)CC2)C(C)(C)C [Compound 56, (S)-7-(cyclopropylmethyl)-N-(3,3-dimethyl-1-(methylamino)-1-oxobutan-2-yl)-3-phenyl-5,6,7,8-tetrahydroimidazo[1,5-a]pyrazine-1-carboxamide] | < 5.00 | − |  |
| CNC(=O)[C@H](CC(C)(C)C)NC(=O)c1nc(-c2cc(Cl)ccc2F)n2c1CN(C)CCC2 [Compound 545, (S)-3-(5-chloro-2-fluorophenyl)-N-(4,4-dimethyl-1-(methylamino)-1-oxopentan-2-yl)-8-methyl-6,7,8,9-tetrahydro-5H-imidazo[1,5-a][1,4]diazepine-1-carboxamide] |  | + | +/− HCB1 [1]: + |
| CNC(=O)[C@@H](NC(=O)c1nc(-c2ccccc2)n2c1CN(Cc1ccnn1C)CC2)C(C)(C)C [Compound 65, (S)-N-(3,3-dimethyl-1-(methylamino)-1-oxobutan-2-yl)-7-((1-methyl-1H-pyrazol-5-yl)methyl)-3-phenyl-5,6,7,8-tetrahydroimidazo[1,5-a]pyrazine-1-carboxamide] | < 5.00 |  | pEC50 (rat CB2 receptor (rCB2)): < 5.00 |
| CN1CCCn2c(-c3ccc(F)c(F)c3)nc(C(=O)N[C@@H](CC(C)(C)C)C(N)=O)c2C1 [Compound 586, (S)-N-(1-amino-4,4-dimethyl-1-oxopentan-2-yl)-3-(3,4-difluorophenyl)-8-methyl-6,7,8,9-tetrahydro-5H-imidazo[1,5-a][1,4]diazepine-1-carboxamide] |  | + | +/− HCB1 [1]: + |
| CN1CCCn2c(-c3ccccc3)nc(C(=O)N[C@H](C(=O)NC3CC3)C(C)(C)C)c2C1 [Compound 477, (S)-N-(1-(cyclopropylamino)-3,3-dimethyl-1-oxobutan-2-yl)-8-methyl-3-phenyl-6,7,8,9-tetrahydro-5H-imidazo[1,5-a][1,4]diazepine-1-carboxamide] | < 5.00 | + |  |
| Cc1ccc(-c2nc(C(=O)N[C@H](C(=O)O)C(C)(C)C)c3n2CCCN(C(=O)OC(C)(C)C)C3)c(F)c1 [Compound 516, (S)-2-(8-(tert-butoxycarbonyl)-3-(2-fluoro-4-methylphenyl)-6,7,8,9-tetrahydro-5H-imidazo[1,5-a][1,4]diazepine-1-carboxamido)-3,3-dimethylbutanoic acid] | < 5.00 | − |  |
| CCCNC(=O)N1CCn2c(-c3ccccc3)nc(C(=O)N[C@H](C(=O)NC)C(C)(C)C)c2C1 [Compound 193, (S)-N1-(3,3-dimethyl-1-(methylamino)-1-oxobutan-2-yl)-3-phenyl-N7-propyl-5,6-dihydroimidazo[1,5-a]pyrazine-1,7(8H)-dicarboxamide] | < 5.00 | − |  |
| Cc1noc([C@@H](NC(=O)c2nc(-c3ccccc3)n3c2CNCC3)C(C)(C)C)n1 [Compound 282, (S)-N-(2,2-dimethyl-1-(3-methyl-1,2,4-oxadiazol-5-yl)propyl)-3-phenyl-5,6,7,8-tetrahydroimidazo[1,5-a]pyrazine-1-carboxamide] | < 5.00 |  | pEC50 (rat CB2 receptor (rCB2)): < 5.00 |
| CNC(=O)[C@H](CC(C)C)NC(=O)c1nc(-c2ccc(Cl)cc2F)n2c1CN(C)CC2 [Compound 276, (S)-3-(4-chloro-2-fluorophenyl)-7-methyl-N-(4-methyl-1-(methylamino)-1-oxopentan-2-yl)-5,6,7,8-tetrahydroimidazo[1,5-a]pyrazine-1-carboxamide] | < 5.00 | − |  |
| CNC(=O)[C@@H](NC(=O)c1nc(-c2ccc(Cl)cc2F)n2c1CN(C(=O)OC(C)(C)C)CCC2)C(C)(C)C [Compound 313] | < 5.00 | − |  |
| CNC(=O)[C@@H](NC(=O)c1nc(CCCOC)n2c1CN(C)CCC2)C(C)(C)C [Compound 489, (S)-N-(3,3-dimethyl-1-(methylamino)-1-oxobutan-2-yl)-3-(3-methoxypropyl)-8-methyl-6,7,8,9-tetrahydro-5H-imidazo[1,5-a][1,4]diazepine-1-carboxamide] | < 5.00 | + |  |
| CN1CCn2c(-c3ccccc3)nc(C(=O)NCC(C)(C)CO)c2C1 [Compound 82, N-(3-hydroxy-2,2-dimethylpropyl)-7-methyl-3-phenyl-5,6,7,8-tetrahydroimidazo[1,5-a]pyrazine-1-carboxamide] |  |  | EC50 [1]: > 10000 nM; EC50 (rat CB2 receptor (rCB2)): > 10000 nM |
| CNC(=O)c1ccccc1NC(=O)c1nc(-c2ccc(Cl)cc2F)n2c1CN(C)CC2 [Compound 217] |  |  | EC50 [1]: > 10000 nM; EC50 (rat CB2 receptor (rCB2)): > 10000 nM |
| Cc1ccc(-c2nc(C(=O)N[C@H](c3nc(C)no3)C(C)(C)C)c3n2CCCN(C(C)C)C3)c(F)c1 [Compound 523, (S)-N-(2,2-dimethyl-1-(3-methyl-1,2,4-oxadiazol-5-yl)propyl)-3-(2-fluoro-4-methylphenyl)-8-isopropyl-6,7,8,9-tetrahydro-5H-imidazo[1,5-a][1,4]diazepine-1-carboxamide] | < 5.00 | − |  |
| CNC(=O)[C@@H](NC(=O)c1nc(-c2ccccc2)n2c1CN(C(=O)c1ccccc1)CCC2)C(C)(C)C [Compound 462, (S)-8-benzoyl-N-(3,3-dimethyl-1-(methylamino)-1-oxobutan-2-yl)-3-phenyl-6,7,8,9-tetrahydro-5H-imidazo[1,5-a][1,4]diazepine-1-carboxamide] | < 5.00 |  | pEC50 (rat CB2 receptor (rCB2)): < 5.00 |
| CNC(=O)[C@@H](NC(=O)c1nc(-c2cc(Cl)ccc2OC)n2c1CN(C)CCC2)C(C)(C)C [Compound 327, (S)-3-(5-chloro-2-methoxyphenyl)-N-(3,3-dimethyl-1-(methylamino)-1-oxobutan-2-yl)-8-methyl-6,7,8,9-tetrahydro-5H-imidazo[1,5-a][1,4]diazepine-1-carboxamide] | < 5.00 | + |  |
| Cc1nnc([C@@H](NC(=O)c2nc(-c3ccccc3)n3c2CN(C)CC3)C(C)(C)C)o1 [Compound 201, (S)-N-(2,2-dimethyl-1-(5-methyl-1,3,4-oxadiazol-2-yl)propyl)-7-methyl-3-phenyl-5,6,7,8-tetrahydroimidazo[1,5-a]pyrazine-1-carboxamide] | < 5.00 | + |  |
| CNC(=O)[C@@H](NC(=O)c1nc(-c2ccccc2)n2c1CN(c1cncc(Cl)n1)CC2)C(C)(C)C [Compound 300, (S)-7-(6-chloropyrazin-2-yl)-N-(3,3-dimethyl-1-(methylamino)-1-oxobutan-2-yl)-3-phenyl-5,6,7,8-tetrahydroimidazo[1,5-a]pyrazine-1-carboxamide] |  | − | +/− HCB1 [1]: + |
| CNC(=O)[C@H](CC(C)C)NC(=O)c1nc(-c2cc(Cl)ccc2F)n2c1CN(C)CCC2 [Compound 536, (S)-3-(5-chloro-2-fluorophenyl)-8-methyl-N-(4-methyl-1-(methylamino)-1-oxopentan-2-yl)-6,7,8,9-tetrahydro-5H-imidazo[1,5-a][1,4]diazepine-1-carboxamide] | < 5.00 | + |  |
